The text below walks through data of patent US10172868B2, “Substituted quinazolines for inhibiting kinase activity” (NeuPharma, Inc., priority 2013, dated 2019).

Molecules are shown by their SMILES. A value given as a limit tells only on which side of the number the result lay.

One test has as its target EGFR (ErbB1) T790M L858R (Homo sapiens (Human), UniProt P00533, L858R/T790M). Briefly: Z'-LYTE kinase inhibition assay, EGFR L858R/T790M. The test is classed as biochemical. As to conditions: for inhibition at 1 µM: read-out: % inhibition against EGFR L858R/T790M (Compound at 1 μM); for inhibition at 0.0137 µM: read-out: % inhibition against EGFR L858R/T790M (Compound at 0.0137 μM); for IC50: read-out: IC50 against EGFR L858R/T790M. Put shortly:
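Z'-LYTE FRET peptide assay at 1% DMSO, 10-point 3-fold titrations; kinase/peptide mix in 50 mM HEPES pH 6.5, 0.01% BRIJ-35, 10 mM MgCl2, 1 mM EGTA, 0.02% NaN3. Kinase reaction ran 60 min at room temperature, followed by 60 min development and a fluorescence read. IC50 derived from the concentration series.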

The subject of a further test is HCC827 cells. Briefly: cells. As to conditions: Homo sapiens, HCC827, 72 h, read-out: IC50 in HCC827 cells.
A further test deals with H1975 cells. Briefly: Inhibition of cancer cell growth, MTT assay, H1975. As to conditions: Homo sapiens, NCI-H1975, 72 h, read-out: IC50 in H1975 cells.
In another test the target is EGFR (ErbB1) (Homo sapiens (Human), UniProt P00533). The test is described as follows: Z'-LYTE kinase inhibition assay, EGFR. The test is classed as biochemical. The settings on record: for inhibition at 0.041 µM: read-out: % inhibition against EGFR (Compound at 0.041 μM). Summed up:
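Z'-LYTE FRET assay run with 1.1-5.25 ng EGFR and 2 μM peptide substrate in 50 mM HEPES pH 7.5, 10 mM MgCl2, 2 mM MnCl2, 1 mM EGTA, 1 mM DTT, 0.01% BRIJ-35, 1% DMSO. Kinase reaction 60 min at room temperature, then 60 min development; IC50 from 10-point 3-fold titrations.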

The test system of another test is A431 cells. The test is described as follows: cells. The settings on record: Homo sapiens, A-431, 72 h, read-out: IC50 in A431 cells.
The target of the next test is BTK (Homo sapiens (Human), UniProt Q06187). The test is described as follows: Z'-LYTE kinase inhibition assay, BTK. The test is classed as biochemical. As to conditions: compound at 0.041 μM; read-out: % inhibition against BTK. The method, then: Inhibitory activities of compounds against BTK, EGFR and EGFR mutants (EGFR L858R, EGFR T790M, EGFR L858R/T790M), FGFR1, FGFR2, JAK2, JAK3 and KDR were measured by Invitrogen using Z'-LYTE® Method as briefly described in the following.
Test Compounds are screened in 1% DMSO (final) in the well. For 10 point titrations, 3-fold serial dilutions are conducted from the starting concentration. All ATP Solutions are diluted to a 4× working concentration in Kinase Buffer (50 mM HEPES pH 7.5, 0.01% BRIJ-35, 10 mM MgCl2, 1 mM EGTA). Peptide/Kinase Mixtures are diluted to a 2× working concentration in the appropriate Kinase Buffers as described below.
(v) Peptide/Kinase Mixtures for Measurement of BTK:
The 2×BTK/Tyr 01 mixture is prepared in 50 mM HEPES pH 7.5. 0.01% BRIJ-35, 10 mM MgCl2, 1 mM EGTA.
The mixture is then incubated for another 60-minute at room temperature for development reaction. Finally fluorescence is read by plate reader.
To determine IC50 of a compound against EGFR, EGFR mutant and other kinases, a series of concentrations of the compound were tested for the inhibition. […] The scale utilized in Table 4 is as follows: +++ less than 100 nM, ++ 100-500 nM and + greater than 500 nM.

For the next test, the system named is H3255 cells. The test is described as follows: Inhibition of cancer cell growth, MTT assay, H3255. As to conditions: Homo sapiens, NCI-H3255, 72 h, read-out: IC50 in H3255 cells.

Chain of EGFR (ErbB1) T790M L858R (P00533 25-1210 T790M/L858R): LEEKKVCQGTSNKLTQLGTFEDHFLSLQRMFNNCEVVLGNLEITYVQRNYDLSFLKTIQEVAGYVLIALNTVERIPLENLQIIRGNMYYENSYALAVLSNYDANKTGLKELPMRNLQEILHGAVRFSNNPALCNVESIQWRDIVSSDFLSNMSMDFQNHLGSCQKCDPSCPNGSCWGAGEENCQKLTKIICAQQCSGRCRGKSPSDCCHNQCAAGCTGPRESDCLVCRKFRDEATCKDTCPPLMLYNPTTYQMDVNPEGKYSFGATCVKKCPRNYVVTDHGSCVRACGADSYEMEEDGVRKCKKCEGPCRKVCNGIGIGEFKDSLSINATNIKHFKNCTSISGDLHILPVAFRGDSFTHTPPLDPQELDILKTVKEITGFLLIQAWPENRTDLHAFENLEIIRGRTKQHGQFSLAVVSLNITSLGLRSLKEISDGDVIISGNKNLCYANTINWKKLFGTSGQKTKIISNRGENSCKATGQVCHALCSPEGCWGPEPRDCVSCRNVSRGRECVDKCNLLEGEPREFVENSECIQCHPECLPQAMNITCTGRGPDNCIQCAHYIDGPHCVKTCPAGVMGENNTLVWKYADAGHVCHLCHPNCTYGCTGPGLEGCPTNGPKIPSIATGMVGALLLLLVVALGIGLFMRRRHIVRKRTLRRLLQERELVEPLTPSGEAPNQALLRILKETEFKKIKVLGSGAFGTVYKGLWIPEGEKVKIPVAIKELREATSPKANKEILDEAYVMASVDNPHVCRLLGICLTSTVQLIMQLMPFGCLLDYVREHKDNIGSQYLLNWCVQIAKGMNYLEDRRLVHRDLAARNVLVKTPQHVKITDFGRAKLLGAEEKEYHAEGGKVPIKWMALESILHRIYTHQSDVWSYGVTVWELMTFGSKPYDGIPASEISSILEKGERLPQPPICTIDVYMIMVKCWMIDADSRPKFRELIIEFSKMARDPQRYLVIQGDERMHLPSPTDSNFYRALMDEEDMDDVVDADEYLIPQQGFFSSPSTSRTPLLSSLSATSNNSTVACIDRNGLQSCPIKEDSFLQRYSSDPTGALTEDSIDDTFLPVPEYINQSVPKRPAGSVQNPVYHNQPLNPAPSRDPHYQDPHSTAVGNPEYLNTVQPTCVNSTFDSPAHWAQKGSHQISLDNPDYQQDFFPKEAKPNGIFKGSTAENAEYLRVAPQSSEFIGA
Chain of EGFR (ErbB1) (P00533 25-1210): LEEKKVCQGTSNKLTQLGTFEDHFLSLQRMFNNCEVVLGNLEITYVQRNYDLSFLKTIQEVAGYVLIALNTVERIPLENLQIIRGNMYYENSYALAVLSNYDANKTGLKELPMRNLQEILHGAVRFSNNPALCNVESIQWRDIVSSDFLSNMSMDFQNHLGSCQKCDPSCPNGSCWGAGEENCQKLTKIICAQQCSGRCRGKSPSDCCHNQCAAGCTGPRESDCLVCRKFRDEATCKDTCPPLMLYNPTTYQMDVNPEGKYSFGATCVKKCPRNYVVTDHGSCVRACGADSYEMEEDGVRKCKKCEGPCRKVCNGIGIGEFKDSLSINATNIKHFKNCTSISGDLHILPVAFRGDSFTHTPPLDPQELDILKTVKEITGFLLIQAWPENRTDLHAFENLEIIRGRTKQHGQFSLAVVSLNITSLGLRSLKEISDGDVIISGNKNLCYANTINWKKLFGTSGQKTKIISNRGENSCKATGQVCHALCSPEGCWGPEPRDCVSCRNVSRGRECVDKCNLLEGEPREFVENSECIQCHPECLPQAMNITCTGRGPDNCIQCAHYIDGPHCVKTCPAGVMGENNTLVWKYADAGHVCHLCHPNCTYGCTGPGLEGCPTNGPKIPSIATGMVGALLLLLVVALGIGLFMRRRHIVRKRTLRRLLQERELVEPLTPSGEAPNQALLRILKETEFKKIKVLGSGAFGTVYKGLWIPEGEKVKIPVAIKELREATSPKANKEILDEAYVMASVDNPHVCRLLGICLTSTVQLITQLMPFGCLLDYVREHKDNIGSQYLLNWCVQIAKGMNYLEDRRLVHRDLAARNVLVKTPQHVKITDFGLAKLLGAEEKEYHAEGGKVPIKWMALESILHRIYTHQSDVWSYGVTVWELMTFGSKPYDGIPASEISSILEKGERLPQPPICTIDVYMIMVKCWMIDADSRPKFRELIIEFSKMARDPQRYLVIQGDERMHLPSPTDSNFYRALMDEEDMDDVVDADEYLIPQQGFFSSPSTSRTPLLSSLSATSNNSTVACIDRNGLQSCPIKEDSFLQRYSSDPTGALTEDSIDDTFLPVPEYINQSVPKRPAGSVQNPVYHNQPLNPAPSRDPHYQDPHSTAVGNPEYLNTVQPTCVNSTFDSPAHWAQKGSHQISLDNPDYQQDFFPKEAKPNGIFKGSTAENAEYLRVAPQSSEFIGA
Chain of BTK (Q06187 whole entry): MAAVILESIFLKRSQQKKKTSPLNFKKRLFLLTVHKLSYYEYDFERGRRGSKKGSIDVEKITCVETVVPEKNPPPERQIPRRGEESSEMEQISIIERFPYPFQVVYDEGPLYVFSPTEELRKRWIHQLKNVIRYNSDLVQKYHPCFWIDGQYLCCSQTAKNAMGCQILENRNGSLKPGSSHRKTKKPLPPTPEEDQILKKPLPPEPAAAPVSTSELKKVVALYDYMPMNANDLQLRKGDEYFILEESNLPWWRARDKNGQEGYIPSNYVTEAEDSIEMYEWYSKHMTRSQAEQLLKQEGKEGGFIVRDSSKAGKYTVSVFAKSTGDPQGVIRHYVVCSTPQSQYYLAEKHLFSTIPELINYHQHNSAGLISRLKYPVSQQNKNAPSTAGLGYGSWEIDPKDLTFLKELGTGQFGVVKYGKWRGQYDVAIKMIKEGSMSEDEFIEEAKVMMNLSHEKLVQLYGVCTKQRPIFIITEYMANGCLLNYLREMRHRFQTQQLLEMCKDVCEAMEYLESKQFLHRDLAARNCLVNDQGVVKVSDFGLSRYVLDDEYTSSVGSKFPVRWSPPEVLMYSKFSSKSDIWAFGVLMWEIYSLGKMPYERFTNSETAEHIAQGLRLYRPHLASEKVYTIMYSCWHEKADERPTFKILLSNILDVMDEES
Protocol for H1975 cells: Inhibition of cell growth by compounds was measured using MTT assay (Mosmann, T., Journal of Immunological Methods, 1983, 65, 55-63). Tumor cell lines were purchased from ATCC (American Type Culture Collection, Manassas, Va.). All cell lines were maintained in RPMI 1640 (Hyclone) supplemented with 10% fetal bovine serum (FBS, Hyclone), glutamine (2 mM, Hyclone), and antibiotics (penicillin 100 U/mL and streptomycin 50 μg/mL) at 37° C. in a humidified atmosphere of 5% CO2 in air. Taxol (as a positive control. Sigma) and compounds were dissolved in DMSO (Sigma), and the final concentration of DMSO in the medium was 1%. Tumor cells were plated in 96-well plates at densities of about 4000 cells/well of a 96-well plate and allowed to adhere/grow for 24 h. They were then treated with various concentrations of drug for 72 h, 3-(4,5-Dimethylthiazol-2-yl)-2,5-diphenyltetrazolium bromide (MTT, Sigma) was used to determine the number of viable cells at the time of compound addition and the number of cells remaining after 72 h compound exposure. The number of cells remaining after 72 h was compared to the number of viable cells at the time of compound addition by measuring the absorbance at 570 nm, allowing for the calculation of growth inhibition.
All concentrations of compounds were tested in triplicate and controls were averaged over 4 wells. IC50 was calculated by plotting the concentration of compound vs the percentage of inhibition in treated wells using GraphPad Prism 5.

Take `Fc1ccc(Cl)cc1-c1cccc2cnc(Nc3ccc(N4CCNCC4)cc3)nc12` [Example C024, 8-(5-chloro-2-fluorophenyl)-N-(4-(piperazin-1-yl)phenyl)quinazolin-2-amine]: the inhibition at 1 µM at EGFR (ErbB1) T790M L858R was > 50%. Also, the IC50 with HCC827 cells and with H1975 cells was > 500 nM each time.
For the molecule `Fc1ccc(OCCN2CCOCC2)cc1-c1cccc2cnc(Nc3ccc(N4CCNCC4)cc3)nc12` [Example C028, 8-(2-fluoro-5-(2-morpholinoethoxy)phenyl)-N-(4-(piperazin-1-yl)phenyl)quinazolin-2-amine], the inhibition at 1 µM at EGFR (ErbB1) T790M L858R was > 50%. For the same molecule, the IC50 with HCC827 cells and in the test on H1975 cells was > 500 nM throughout.
Consider `c1ccc(-c2cccc3cnc(Nc4ccc(N5CCNCC5)cc4)nc23)cc1` [Example C030, 8-phenyl-N-(4-(piperazin-1-yl)phenyl)quinazolin-2-amine], for which the inhibition at 1 µM on EGFR (ErbB1) (read-out: % inhibition against EGFR (Compound at 1 μM)) and at EGFR (ErbB1) T790M L858R was > 50% each time. Moreover, the IC50 with HCC827 cells and in the test on H1975 cells was 100 to 500 nM each time.
Turning to `C=CC(=O)Nc1cccc(-c2c(CO)ccc3cnc(Nc4ccc(N5CCN(C)CC5)cc4)nc23)c1` [Example C037, N-(3-(7-(hydroxymethyl)-2-((4-(4-methylpiperazin-1-yl)phenyl)amino)quinazolin-8-yl)phenyl)acrylamide], the inhibition at 0.041 µM on EGFR (ErbB1) was > 50%. Moreover, the IC50 with A431 cells, with HCC827 cells and with H1975 cells was < 100 nM each time.
As to `C=CC(=O)Nc1cccc(-c2cccc3cnc(Nc4ccc(N5CCN(CC)CC5)cc4)nc23)c1F` [Example C038, N-(3-(2-((4-(4-ethylpiperazin-1-yl)phenyl)amino)quinazolin-8-yl)-2-fluorophenyl)acrylamide], the IC50 in the test on HCC827 cells and in the test with H1975 cells was < 100 nM each time.
Take `C=CC(=O)Nc1cccc(-c2cccc3cnc(Nc4ccc(OCCN(C)C)cc4)nc23)c1` [Example C110, N-(3-(2-((4-(2-(dimethylamino)ethoxy)phenyl)amino)quinazolin-8-yl)phenyl)acrylamide]: the inhibition at 0.041 µM on EGFR (ErbB1) was < 50%; on BTK it was > 50%. On EGFR (ErbB1) T790M L858R, the inhibition at 0.0137 µM was > 50%. The IC50 on EGFR (ErbB1) T790M L858R, with A431 cells and with H1975 cells was < 100 nM in each case.
On to `C=CC(=O)Nc1cccc(-c2cccc3cnc(Nc4ccc(O[C@H]5CCN(C)C5)cc4)nc23)c1` [Example C121, (S)-N-(3-(2-((4-((1-methylpyrrolidin-3-yl)oxy)phenyl)amino)quinazolin-8-yl)phenyl)acrylamide], for which the inhibition at 0.041 µM on EGFR (ErbB1) was < 50%; on BTK, > 50%. Besides, the inhibition at 0.0137 µM on EGFR (ErbB1) T790M L858R is > 50%. Further, the figures for the IC50 on EGFR (ErbB1) T790M L858R, with A431 cells and in the test with H1975 cells were < 100 nM, 100 to 500 nM and < 100 nM, respectively.
Turning to `C=CC(=O)Nc1cccc(-c2cccc3cnc(Nc4ccc(O[C@@H]5CCN(C)C5)cc4)nc23)c1` [Example C123, (R)-N-(3-(2-((4-((1-methylpyrrolidin-3-yl)oxy)phenyl)amino)quinazolin-8-yl)phenyl)acrylamide], the inhibition at 0.041 µM on EGFR (ErbB1) and at BTK was > 50% in each case. Besides, the inhibition at 0.0137 µM on EGFR (ErbB1) T790M L858R is > 50%. Further, the IC50 at EGFR (ErbB1) T790M L858R, in the test with A431 cells and in the test with H1975 cells was < 100 nM each time.
Consider `C=CC(=O)Nc1cccc(-c2cccc3cnc(Nc4ccc(OC5CCN(C)CC5)cc4)nc23)c1` [Example C126, N-(3-(2-((4-((1-methylpiperidin-4-yl)oxy)phenyl)amino)quinazolin-8-yl)phenyl)acrylamide], for which the inhibition at 0.041 µM at EGFR (ErbB1) and on BTK was > 50% throughout. For the same molecule, the inhibition at 0.0137 µM at EGFR (ErbB1) T790M L858R was > 50%. The IC50 at EGFR (ErbB1) T790M L858R, in the test on A431 cells and in the test on H1975 cells was < 100 nM in each case.
For the molecule `C=CC(=O)Nc1cccc(-c2cccc3cnc(Nc4ccc(N[C@H]5CCN(C)C5)cc4)nc23)c1` [Example C127, (S)-N-(3-(2-((4-((1-methylpyrrolidin-3-yl)amino)phenyl)amino)quinazolin-8-yl)phenyl)acrylamide], the inhibition at 0.041 µM on EGFR (ErbB1) is > 50%. Also, on EGFR (ErbB1) T790M L858R, the inhibition at 0.0137 µM is > 50%. In addition, the IC50 on EGFR (ErbB1) T790M L858R is < 100 nM; in the test on A431 cells, < 100 nM; in the test on H3255 cells, 100 to 500 nM; in the test with H1975 cells, < 100 nM.
For the molecule `C=CC(=O)Nc1cccc(-c2cccc3cnc(Nc4ccc(OC5CCN(CCO)CC5)cc4)nc23)c1` [Example C137, N-(3-(2-((4-((1-(2-hydroxyethyl)piperidin-4-yl)oxy)phenyl)amino)quinazolin-8-yl)phenyl)acrylamide], the inhibition at 0.041 µM on EGFR (ErbB1) was > 50%. Further, the inhibition at 0.0137 µM on EGFR (ErbB1) T790M L858R is > 50%. In addition, the IC50 is < 100 nM on EGFR (ErbB1) T790M L858R, 100 to 500 nM with A431 cells, > 500 nM with H3255 cells and < 100 nM in the test on H1975 cells.
Turning to `C=CC(=O)Nc1cccc(-c2cccc3cnc(Nc4ccc(NC5CCN(CCO)CC5)cc4)nc23)c1` [Example C139, N-(3-(2-((4-((1-(2-hydroxyethyl)piperidin-4-yl)amino)phenyl)amino)quinazolin-8-yl)phenyl)acrylamide], the inhibition at 0.041 µM at EGFR (ErbB1) is > 50%. Besides, the inhibition at 0.0137 µM at EGFR (ErbB1) T790M L858R was > 50%. The IC50 on EGFR (ErbB1) T790M L858R was < 100 nM; in the test with A431 cells it was < 100 nM; with H3255 cells it was 100 to 500 nM; in the test with H1975 cells it was < 100 nM.
As to `C=CC(=O)Nc1cccc(-c2cccc3cnc(Nc4ccc(NC5CCN(C)CC5)cc4F)nc23)c1` [Example C140, N-(3-(2-((2-fluoro-4-((1-methylpiperidin-4-yl)amino)phenyl)amino)quinazolin-8-yl)phenyl)acrylamide], the inhibition at 0.041 µM on EGFR (ErbB1) was > 50%. The inhibition at 0.0137 µM at EGFR (ErbB1) T790M L858R is > 50%. Moreover, the IC50 on EGFR (ErbB1) T790M L858R is < 100 nM; in the test with A431 cells, > 500 nM; with H3255 cells, > 500 nM; with H1975 cells, < 100 nM.
For `C=CC(=O)Nc1cccc(-c2cccc3cnc(Nc4ccc(N5CCN(CCOC)CC5)cc4)nc23)c1` [Example C152, N-(3-(2-((4-(4-(2-methoxyethyl)piperazin-1-yl)phenyl)amino)quinazolin-8-yl)phenyl)acrylamide], the inhibition at 0.041 µM at EGFR (ErbB1) is < 50%. The inhibition at 0.0137 µM on EGFR (ErbB1) T790M L858R is > 50%. The IC50 is 100 to 500 nM in the test with A431 cells, 100 to 500 nM with H3255 cells and < 100 nM with H1975 cells.
On to `C=CC(=O)Nc1cccc(-c2cccc3cnc(Nc4cc(F)c(N5CCN(CCOC)CC5)cc4F)nc23)c1` [Example C161, N-(3-(2-((2,5-difluoro-4-(4-(2-methoxyethyl)piperazin-1-yl)phenyl)amino)quinazolin-8-yl)phenyl)acrylamide], for which, at EGFR (ErbB1) T790M L858R, the inhibition at 0.0137 µM was < 50%. Besides, the results for the IC50 with H3255 cells and in the test on H1975 cells were > 500 nM and 100 to 500 nM, respectively.
Turning to `C=CC(=O)Nc1cccc(-c2cccc3cnc(Nc4cc(F)c(N5CCN(CCO)CC5)cc4F)nc23)c1` [Example C162, N-(3-(2-((2,5-difluoro-4-(4-(2-hydroxyethyl)piperazin-1-yl)phenyl)amino)quinazolin-8-yl)phenyl)acrylamide], the IC50 with H3255 cells is > 500 nM; in the test on H1975 cells, 100 to 500 nM.
